This passage reports solubility results from US20110159088A1, “ORAL PHARMACEUTICAL FOR BASED ON AT LEAST ONE ACTIVE PRINCIPLE WHOSE SOLUBILITY VARIES AS A FUNCTION OF THE GASTRIC pH CONDITIONS” (Flamel Technologies, S.A., priority 2005, published 2011).

The structures appear in SMILES notation. In brackets after ≈: the same amount, converted by molar mass.

A word on the solubility: it is how much of the substance goes into solution per volume.

This series is described as follows: physchem. The class given is physicochemical. Conditions: 37 °C. Here is the method:
This solubility is measured in an aqueous medium at 37° C., maintained at the pH under consideration. The solubility of Irbesartan varies greatly in the gastric pH range: The solubility of Eprosartan varies greatly in the gastric pH range: The solubility of Acyclovir varies greatly in the gastric pH range: […]

Where [1] appears, read: pH 1.2, simulated gastric fluid.

Take `CCCCC1=NC2(CCCC2)C(=O)N1Cc1ccc(-c2ccccc2-c2nnn[nH]2)cc1` [Irbesartan]: the solubility runs as follows: under setting [1], 2420 µg/mL (≈ 5650 µM); (pH 2, simulated gastric fluid) 362 µg/mL (≈ 845 µM); (pH 3, aqueous buffer) 48 µg/mL (≈ 112 µM); (pH 4.5, aqueous buffer) 20 µg/mL (≈ 46.7 µM); (pH 5.5, aqueous buffer) 65 µg/mL (≈ 152 µM); (pH 6.8, aqueous buffer) 666 µg/mL (≈ 1550 µM).
For the molecule `Nc1nc2c(ncn2COCCO)c(=O)[nH]1` [Acyclovir], the solubility was 10500 µg/mL (≈ 46600 µM) under setting [1]; 6000 µg/mL (≈ 26600 µM) (pH 2, simulated gastric fluid); 3300 µg/mL (≈ 14700 µM) (pH 2.5, aqueous buffer); 2600 µg/mL (≈ 11500 µM) (pH 4.5, aqueous buffer); 2500 µg/mL (≈ 11100 µM) (pH 6.8, aqueous buffer).
Regarding `CCCCc1ncc(/C=C(\Cc2cccs2)C(=O)O)n1Cc1ccc(C(=O)O)cc1` [Eprosartan], the solubility runs as follows: under setting [1], 795 µg/mL (≈ 1870 µM); (pH 2, simulated gastric fluid) 142 µg/mL (≈ 334 µM); (pH 3, aqueous buffer) 33 µg/mL (≈ 77.7 µM); (pH 4.5, aqueous buffer) 18 µg/mL (≈ 42.4 µM); (pH 5.5, aqueous buffer) 15 µg/mL (≈ 35.3 µM); (pH 6.8, aqueous buffer) 1190 µg/mL (≈ 2810 µM).
